Measured values reported in ChEMBL document CHEMBL3045400, “Synthesis of novel triazole derivatives as potent inhibitor of allene oxide synthase (CYP74A), a key enzyme in jasmonic acid biosynthesis” (J Pestic Sci, 2012).

Target: T1, Allene oxide synthase, chloroplastic (Arabidopsis thaliana, UniProt Q96242)
T1 sequence (Q96242 whole entry): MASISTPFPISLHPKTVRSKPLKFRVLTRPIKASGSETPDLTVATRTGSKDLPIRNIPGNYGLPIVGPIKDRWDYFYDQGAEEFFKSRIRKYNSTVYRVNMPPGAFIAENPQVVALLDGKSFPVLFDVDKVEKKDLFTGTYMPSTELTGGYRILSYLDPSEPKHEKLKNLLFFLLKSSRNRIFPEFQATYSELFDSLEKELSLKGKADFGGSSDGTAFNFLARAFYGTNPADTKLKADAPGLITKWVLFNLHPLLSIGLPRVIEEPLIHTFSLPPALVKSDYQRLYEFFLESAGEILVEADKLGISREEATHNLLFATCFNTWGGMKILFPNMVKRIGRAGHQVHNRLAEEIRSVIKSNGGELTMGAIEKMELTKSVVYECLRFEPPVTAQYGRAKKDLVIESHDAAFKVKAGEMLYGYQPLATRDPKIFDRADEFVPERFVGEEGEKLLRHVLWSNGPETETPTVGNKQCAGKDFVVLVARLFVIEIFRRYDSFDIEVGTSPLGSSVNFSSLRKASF
Test: Inhibition of recombinant Arabidopsis thaliana allene oxide synthase activity by spectrophotometry

SMILES | IC50 [nM]
CCCCCCCOC(=O)CCCCCCCOC(Cn1ccnc1)c1ccc(Cl)cc1Cl (stereo unspecified) | 10
COC(=O)CCCCCCCOC(Cn1cncn1)c1ccc2ccccc2c1 (stereo unspecified) | 750
COC(=O)CCCCCCCOC(Cn1ccnc1)c1ccc(Cl)cc1Cl (stereo unspecified) | 850
COC(=O)CCCCCCCOC(Cn1cncn1)c1ccc(Cl)c(Cl)c1 (stereo unspecified) | 930
COC(=O)CCCCCCCOC(Cn1cncn1)c1ccc(Cl)cc1Cl (stereo unspecified) | 840
COC(=O)CCCCCCCOC(Cn1cncn1)c1ccc(Cl)cc1 (stereo unspecified) | 1200
COC(=O)CCCCCCCOC(Cn1cncn1)c1ccc(F)cc1 (stereo unspecified) | 14500
COC(=O)CCCCCCCOC(Cn1cncn1)c1ccc(-c2ccccc2)cc1 (stereo unspecified) | 54300
COC(=O)CCCCCCCOC(Cn1cncn1)c1ccc(OC)cc1 (stereo unspecified) | 2600
COC(=O)CCCCCCCOC(Cn1cncn1)c1cccc(OC)c1 (stereo unspecified) | 22500
COC(=O)CCCCCCCOC(Cn1cncn1)c1ccccc1 (stereo unspecified) | 1600
